{"source": "patent US9808434B2", "about": "“Compound for treating cancer and diabetes” (CITY OF HOPE, priority 2011, dated 2017)", "key": {"[1]": {"tested_on": "undifferentiated 3T3-L1 cells", "assay": "Preadipocyte viability, MTT assay", "format": "cell-based, mouse", "conditions": "3 days, 2.5-25 μM", "method": "Undifferentiated 3T3-LI cells were treated with COH-SR2, COH-SR3, COH-SR4, COH-SR7, LR23 or LR59 for 3 days at a concentration of 2.5 μM, 5 μM, 10 μM, 15 μM, 20 μM, or 25 μM. The cell viability for each treatment was determined by MTT assay (FIG. 7)."}, "PBT028": {"tested_on": "PBT028", "assay": "Glioma ATP viability assay, PBT028", "format": "cell-based", "conditions": "Table 1; 72 hours", "method": "Cells of each cell line (U251, U87, PBT-017, PBT018, PBT003 and PBT028) were treated with various concentrations (0˜100 μM) of COH-SR4 for 72 hours. Cell viabilities were determined by ATP viability assays. Data were represented as a ratio to vehicle (DMSO) control, and plotted as mean±SEM (n=12) obtained from 2˜3 experiments (FIG. 34A)."}, "HAVSMC": {"tested_on": "HAVSMC", "assay": "Colony formation assay, HAVSMC", "format": "cell-based, human", "conditions": "for colony forming potential: vs untreated control", "method": "Cell survival was evaluated using a standard colony-forming assay. In total, 1×10^5 cells/mL were incubated with COH-SR4 (1.5 μM or 5 μM) or elesclomol (5 μM) for 24 h, and aliquots of 50 or 100 μL were added to 60 mm size petri dishes, containing 4 mL culture medium. After 7 or 10 days, adherent colonies were fixed, stained with 0.5% methylene blue for 30 min and colonies were counted using the Innotech Alpha Imager HP (91)."}, "[2]": {"tested_on": "CDK2, CDK4, cyclin A, cyclin B1, cyclin E1, p27", "assay": "Cell cycle regulator proteins in H358 and H520, Western-blot", "format": "cell-based, human", "conditions": "24 h", "method": "Cell or tissue proteins were extracted with cell lysis buffer (Cell Signaling Technology) and protein concentration was determined using the DC Protein Assay kit (Bio-Rad, Hercules, Calif., USA). Equal amount of proteins (˜40 μg) were loaded onto 4-15% Criterion TGX gels (Bio-Rad, Hercules, Calif.), resolved by SDS-PAGE electrophoresis, and then transferred onto nitrocellulose membranes for immunoblotting. Membranes were blocked with 5% skimmed milk in Tris-buffered saline containing 0.05% Tween 20 before incubation overnight at 4° C. with desired primary antibodies. Immuno-reactive proteins were visualized by peroxidase-labeled secondary antibodies and ECL system (Western Lightning Chemiluminescence Reagent, Perkin-Elmer, Mass., USA). Equal loading of proteins was confirmed by stripping and re-probing the membranes with either β-actin or GAPDH antibodies. Band intensities were quantified using a densitometer (Quantity One, Bio-Rad, Hercules, Calif.).\nIn the context of the elevation of GSTs in lung cancer, the impact of COH-SR4 on the catalytic activity of GSTs towards 1-chloro 2,4-dinitro benzene (CDNB), a model substrate used for GST activity was analyzed. GST activity towards 1-chloro 2,4-dinitro benzene (CDNB) and its inhibition by COH-SR4 was performed in 28000×g crude supernatant prepared from H1417, H1618, H520 and H358 cells. […]"}, "H358 and H520 cells": {"tested_on": "H358 and H520 cells", "assay": "COH-SR4 cytotoxicity after siRNA knock-down of AMPK, XTT", "format": "cell-based, human", "method": "The effects of COH-SR4 on cell viability were assessed in quadruplicate samples using the 2,3-bis (2-methoxy-4-nitro-5-sulfophenly)-5-[(phenylamino) carbonyl]-2H-tetrazolium hydroxide (XTT) assay. Briefly, 20,000 cells were seeded and incubated in 96-well, flat-bottomed plates in 10% FBS-supplemented culture medium 24 h before drug treatment. After 24 h incubation at 37° C., cells were then exposed to the indicated concentrations of drug at 37° C. in 5% CO2 for 48 h. The medium was removed and replaced with 100 μL fresh medium containing 50 μL of the activated-XTT solution to each well, and the cells were further cultured in the CO2 incubator at 37° C. for 4 h. Absorbance was determined on a plate reader at 475 nm.\nAMPK was knocked down by siRNA and assessed the impact on COH-SR4-induced cytotoxicity. […] Thus, the in-vitro analyses of critical signaling proteins of cell proliferation further supported the anti-cancer effects of COH-SR4 in lung cancer cells."}, "[3]": {"assay": "Metabolic effects in Type 2 diabetes db/db mice", "format": "in vivo, mouse", "conditions": "five weeks", "method": "All animal experiments were carried out in accordance with the protocols approved by the Institutional Animal Care and Use Committee of the City of Hope. Nine-week old male C57BL/6J mice fed on high fat diet (HFD, 60% fat) and 10-week old db/db mice were given COH-SR4 (5 mg/kg B.W.) or vehicle (corn oil) via oral gavage every other day for six and five weeks, respectively. Oral glucose tolerance test was performed on animals after an overnight fast. All other metabolic parameters were measured at the end of study. Liver samples were stained with H&E and Oil Red O.\nAll data represented are mean±SEM. *P<0.05, **P<0.01 vs. LFD or db/+; ^#P<0.05, ^##P<0.01 vs. HFD or db/db. n=12 animals per group for HFD mice. LFD=low fat diet (lean), HFD=high fat diet (obese). n=8 animals per group for db/db mice.\nRepresentative mice in each treatment group (db/+, db/db, db/db treated with COH-SR4 (db/db+SR4)) depicted gross images of whole body shape (top) and abdominal fat (bottom) (FIG. 85H)."}}}
{"smiles": "O=C(Nc1cc(Cl)cc(Cl)c1)Nc1cc(Cl)cc(Cl)c1", "note": "[COH-SR4, 1,3-bis(3,5-dichlorophenyl) urea]", "values": [{"measurement": "growth of undifferentiated preadipocytes (MTT)", "setting": "[1]", "result": "inhibited growth of undifferentiated 3T3-L1 cells"}, {"measurement": "IC50", "setting": "PBT028", "result": 2, "unit": "µM"}, {"measurement": "colony formation in normal cells", "setting": "HAVSMC; 1.5 μM", "result": "did not result in significant inhibition of colony formation"}, {"measurement": "colony forming potential", "setting": "HAVSMC; Example 18, FIG. 65B", "result": "96±4", "unit": "%"}, {"measurement": "colony forming potential", "setting": "HAVSMC; FIG. 67B, 5 μM", "result": "95±4", "unit": "%"}, {"measurement": "protein level of p27", "setting": "[2]", "result": "up-regulated"}, {"measurement": "protein levels of CDK2, CDK4, cyclin A, cyclin B1 and cyclin E1", "setting": "[2]", "result": "decreased the protein levels of CDK2, CDK4, cyclin A, cyclin B1 and cyclin E1"}, {"measurement": "cytotoxicity of COH-SR4 after knock-down of AMPK", "setting": "H358 and H520 cells", "result": "significant reversal in the cytotoxicity"}, {"measurement": "body weight", "setting": "[3]; 5 mg/kg oral every other day", "result": "decreased body weight"}, {"measurement": "HbA1c levels", "setting": "[3]", "result": "lower HbA1c levels"}, {"measurement": "fasting blood glucose", "setting": "[3]", "result": "improved fasting blood glucose"}, {"measurement": "glucose tolerance", "setting": "[3]", "result": "improved"}, {"measurement": "hepatic steatosis", "setting": "[3]", "result": "reduced"}, {"measurement": "hepatic triglycerides", "setting": "[3]", "result": "reduced hepatic triglycerides"}]}
